Measurements from ChEMBL document CHEMBL1140846, “Convenient QSAR model for predicting the complexation of structurally diverse compounds with beta-cyclodextrins” (Bioorg Med Chem, 2009).

Experiment: Binding affinity to beta cyclodextrin

SMILES	log Ks
C[C@]12CCC(=O)C=C1CC[C@@H]1[C@@H]2[C@@H](O)C[C@@]2(C)[C@H]1CC[C@]2(O)C(=O)CO [HYDROCORTISONE]	3.6
CC(=O)OCC(=O)[C@@]1(O)CC[C@H]2[C@@H]3CCC4=CC(=O)C=C[C@]4(C)[C@H]3[C@@H](O)C[C@@]21C [PREDNISOLONE ACETATE]	3.76
